Key:
[1] = Retention of chlorine in air dried coatings on hard surface substrate (iodometric titration); format: physicochemical; details: Formica coupons
Procedure: The purpose of this experiment was to measure the effect of binder plus SHA on retention of chlorine in air dried coatings of water-based N-halamine formulations on a hard surface substrate. The procedure used one gram of MCDMH with or without 0.2 grams of hydroxyethylcellulose binder and 0.1 grams of SHA dissolved in 100 ml of water as the surface treatments. Solutions of MCDMH, MCDMH plus binder and SHA containing equivalent amounts of oxidative chlorine were applied to 9 cm^2 of hard surface substrate (Formica coupons), and allowed to dry at room temperature in a chemical fume hood. Determinations of chlorine levels per cm^2 were made on coupons sampled after 4 hours, 24 hours, 48 hours, and 96 hours. The chlorine remaining on each surface was measured by iodometric titration of solutions obtained after soaking of test samples in deionized water for 1 hour at room temperature.

[2] = Retention of chlorine in air dried coatings on soft surface substrates (iodometric titration); format: physicochemical
From the text: The purpose of this experiment was to measure the beneficial effect of binder plus SHA on retention of chlorine in air dried coatings of N-halamine formulations on a soft surface substrate. Solutions of MCDMH, MCDMH plus hydroxyethylcellulose binder plus SHA, each containing equivalent amounts of oxidative Cl were applied to 9 cm^2 of soft surface substrate (cotton fabrics or paper), and allowed to air dry at room temperature in a chemical fume hood. Determinations of chlorine per cm^2 were made on fabrics sampled after 4 hours, 24 hours, 48 hours, and 96 hours. The remaining chlorine was measured by iodometric titration after soaking of test samples in deionized water for 1 hour at room temperature.

With `CC1(C)NC(=O)N(Cl)C1=O` [MCDMH] the “Chlorine Content” value ([1]; 4 h) was 3.61 ×10^18 Cl/cm^2, the “Chlorine Content” value ([1]; 24 h) was 3.25 ×10^18 Cl/cm^2 and the “Chlorine Content” value ([1]; 48 h) was 3.01 ×10^18 Cl/cm^2. The “Chlorine Content” value ([1]; 96 h) was 2.75 ×10^18 Cl/cm^2, the “Chlorine Content” value ([2]; Cotton, 4 h) was 2.41 ×10^18 Cl/cm^2 and the “Chlorine Content” value ([2]; Cotton, 24 h) was 2.04 ×10^18 Cl/cm^2. For the same compound, the “Chlorine Content” value ([2]; Cotton, 48 h) was 1.56 ×10^18 Cl/cm^2, the “Chlorine Content” value ([2]; Cotton, 96 h) was 0.89 ×10^18 Cl/cm^2 and the “Chlorine Content” value ([2]; Paper, 4 h) was 2.74 ×10^18 Cl/cm^2. The “Chlorine Content” value ([2]; Paper, 24 h) was 2.12 ×10^18 Cl/cm^2, the “Chlorine Content” value ([2]; Paper, 48 h) was 1.87 ×10^18 Cl/cm^2 and the “Chlorine Content” value ([2]; Paper, 96 h) was 1.04 ×10^18 Cl/cm^2.
